According to article PMC6934184, “Selective DNA-PKcs inhibition extends the therapeutic index of localized radiotherapy and chemotherapy” (The Journal of Clinical Investigation, 2019):

Biological target: T1, CDK16 (PCTK1)/cyclin Y (Homo sapiens, UniProt Q00536)
T1 construct: purchased Thermo Fisher Scientific (Life Technologies) SelectScreen
Assay: SelectScreen LanthaScreen
Type: binding
Settings: read-out: % displacement
In short: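 Percent values come from Thermo SelectScreen profiling of NU5455, combining activity and binding assays. CSF1R was run in Z'LYTE format at Km app ATP, and CAMK1 in Adapta format with ATP listed at 10.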

T1 sequence (Q00536 whole entry): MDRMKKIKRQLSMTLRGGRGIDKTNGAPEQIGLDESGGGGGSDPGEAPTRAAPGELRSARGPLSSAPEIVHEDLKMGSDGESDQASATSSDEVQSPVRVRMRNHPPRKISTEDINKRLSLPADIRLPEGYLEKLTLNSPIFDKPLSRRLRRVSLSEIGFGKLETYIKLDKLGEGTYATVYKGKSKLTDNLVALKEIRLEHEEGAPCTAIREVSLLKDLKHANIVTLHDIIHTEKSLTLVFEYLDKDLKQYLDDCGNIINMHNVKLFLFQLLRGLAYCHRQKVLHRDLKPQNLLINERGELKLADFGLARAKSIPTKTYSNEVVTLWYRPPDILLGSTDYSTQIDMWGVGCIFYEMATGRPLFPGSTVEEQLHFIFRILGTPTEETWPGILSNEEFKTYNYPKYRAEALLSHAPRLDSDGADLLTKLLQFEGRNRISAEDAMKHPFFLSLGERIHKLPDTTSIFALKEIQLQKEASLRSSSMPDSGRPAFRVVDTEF
T1 sequence (Q8ND76 whole entry partner): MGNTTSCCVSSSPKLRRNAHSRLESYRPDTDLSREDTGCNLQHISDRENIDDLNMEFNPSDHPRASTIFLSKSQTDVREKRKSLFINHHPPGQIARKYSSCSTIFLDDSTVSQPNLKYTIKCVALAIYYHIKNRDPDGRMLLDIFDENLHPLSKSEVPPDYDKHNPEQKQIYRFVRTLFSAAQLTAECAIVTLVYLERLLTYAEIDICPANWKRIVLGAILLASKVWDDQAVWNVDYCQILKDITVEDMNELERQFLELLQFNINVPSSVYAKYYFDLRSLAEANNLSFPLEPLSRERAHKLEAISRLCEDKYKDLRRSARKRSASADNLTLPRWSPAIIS

## CN(C(=O)CN1CCOCC1)c1ccc2sc3c(-c4cccc5c(=O)cc(N6CC7CCC(C6)O7)oc45)cccc3c2c1 [NU5455]
  inhibition at 1 µM: 7%
